Source: patent US10208033B2, “β-carboline, dihydro-β-carboline and tetrahydro-β-carboline alkaloid derivatives and preparation methods same and use in aspects of preventing and treating plant viruses, fungicides and insecticides” (NANKAI UNIVERSITY, priority 2013, dated 2019)

Key:
[1] = system: tobacco mosaic virus (TMV); test: Anti-TMV in vitro effect (half-leaf soaking); format: cell-based, tobacco mosaic virus (host Nicotiana tabacum L.cv.Xanthi NN)
[2] = system: tobacco mosaic virus (TMV); test: Anti-TMV in vivo inactivation; parameters: species or system tobacco mosaic virus (host Nicotiana tabacum L.cv.Xanthi NN)
[3] = system: tobacco mosaic virus (TMV); test: Anti-TMV in vivo therapeutic effect; parameters: species or system tobacco mosaic virus (host Nicotiana tabacum L.cv.Xanthi NN)
[4] = system: tobacco mosaic virus (TMV); test: Anti-TMV in vivo protective effect; parameters: species or system tobacco mosaic virus (host Nicotiana tabacum L.cv.Xanthi NN)
cucumber fusarium wilt = test: Fungicidal (bactericidal) activity in vitro, PDA colony diameter; format: cell-based; conditions: 50 mg/kg
Cercospora arachidicola = test: as above; format: cell-based; conditions: 50 mg/kg
Macrophoma kawatsukai = test: as above; format: cell-based; conditions: 50 mg/kg
Alternaria solani = test: as above; format: cell-based; conditions: 50 mg/kg
Fusarium graminearumt = test: microbe, parasite or virus in culture; format: cell-based; conditions: 50 mg/kg
potato late blight = test: microbe, parasite or virus in culture; format: cell-based
Sclerotinia scleotiorum = test: Fungicidal (bactericidal) activity in vitro, PDA colony diameter; format: cell-based; conditions: 50 mg/kg
Botrytis cinerea = test: as above; format: cell-based; conditions: 50 mg/kg
Rhizoctonia solani = test: as above; format: cell-based; conditions: 50 mg/kg
Phytophthora capsici = test: as above; format: cell-based; conditions: 50 mg/kg
Fusarium fujikuroi = test: as above; format: cell-based; conditions: 50 mg/kg
Rhizoctonia cereali = test: as above; format: cell-based; conditions: 50 mg/kg
Bipolaria maydis = test: organism not typed; format: cell-based; conditions: 50 mg/kg
[5] = system: Colletotrichum orbiculare; test: Fungicidal (bactericidal) activity in vitro, PDA colony diameter; format: cell-based; conditions: 50 mg/kg
armyworms = format: in vivo; conditions: concentration 600 mg/kg
cotton bollworms = test: whole plant or invertebrate; conditions: concentration 600 mg/kg
Description: Experimental method of cotton bollworms: feed and drug mixing method: measure 3 mL of prepared solution and add it to about 27 g of newly prepared feed, thereby obtaining needed concentration through dilution by 10 times.

mosquito larvae = test: whole plant or invertebrate; conditions: concentration 10 mg/kg, 24 h
Outline: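 Early fourth-instar Culex pipiens pallens larvae from an indoor colony, 10 per beaker, exposed to test compound at 5 ppm in water, diluted from a 1000 ppm acetone mother solution. Blank: water containing 0.5 mL test solvent.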

corn borers = conditions: concentration 600 mg/kg

Row | SMILES | Relative inhibition rate (%) In vitro activity ([1]; treatment dose 100 μg/mL) | Relative inhibition rate (%) In vitro activity ([1]; treatment dose 500 μg/mL) | Relative inhibition rate (%) In vivo inactivation ([2]; treatment dose 100 μg/mL) | Relative inhibition rate (%) In vivo inactivation ([2]; treatment dose 500 μg/mL) | Relative inhibition rate (%) In vivo therapy ([3]; treatment dose 100 μg/mL) | Relative inhibition rate (%) In vivo therapy ([3]; treatment dose 500 μg/mL) | Relative inhibition rate (%) In vivo protection ([4]; treatment dose 100 μg/mL) | Bactericidal activity (%) Cucumber fusarium wilt (cucumber fusarium wilt) | Bactericidal activity (%) Cercospora arachidicola (Cercospora arachidicola) | Bactericidal activity (%) Macrophoma kawatsukai (Macrophoma kawatsukai) | Bactericidal activity (%) Alternaria solani (Alternaria solani) | Bactericidal activity (%) Fusarium graminearumt (Fusarium graminearumt) | Bactericidal activity (%) potato late blight (potato late blight) | Bactericidal activity (%) Sclerotinia scleotiorum (Sclerotinia scleotiorum) | Bactericidal activity (%) Botrytis cinerea (Botrytis cinerea) | Bactericidal activity (%) Rhizoctonia solani (Rhizoctonia solani) | Bactericidal activity (%) Phytophthora capsici (Phytophthora capsici) | Bactericidal activity (%) Fusarium fujikuroi (Fusarium fujikuroi) | Bactericidal activity (%) Rhizoctonia cereali (Rhizoctonia cereali) | Bactericidal activity (%) Bipolaria maydis (Bipolaria maydis) | also measured
1 | C[C@@H]1N[C@H](C(=O)NN=CC(C)(C)C)Cc2c1[nH]c1ccccc21 [Ic-26, (1S, 3S)—N′-(2,2-dimethylpropylidene)-1-methyl-2,3,4,9-tetrahydropyridino [3,4-b] indol-3-formylhydrazine] | 27.5% | 64.4% | 28.9% | 63.7% | 36.8% | 68.2% | 33.4% | 4.5% | 18.2% | 36.4% | 19.0% | 46.2% | 17.4% | 15.4% | 36.1% | 8.3% | 12.1% | 29.4% | 48.6% | 20.0% | Relative inhibition rate (%) In vivo protection ([4]; treatment dose 500 μg/mL): 66.8%; Bactericidal activity (%) Colletotrichum orbiculare [5]: 24.0%; Armyworm Mortality (%) (armyworms): 25%; Cotton bollworm Mortality (%) (cotton bollworms): 20%; Mosquito larvae Mortality (%) (mosquito larvae): 55%; Corn borer Mortality (%) (corn borers): 30%
2 | CC(=NNC(=O)[C@@H]1Cc2c([nH]c3ccccc23)[C@H](C)N1)c1ccccc1 [Ic-27, (1S, 3S)—N′-(1-phenylethylidene)-1-methyl-2,3,4,9-tetrahydropyridino [3,4-b] indol-3-formylhydrazine] | 9.2% | 30.2% | 13.6% | 39.5% | 11.1% | 34.8% | 7.9% | 0.0% | 36.4% | 39.4% | 33.3% | 61.5% | 26.1% | 11.5% | 69.4% | 15.3% | 36.4% | 29.4% | 51.4% | 36.0% | Relative inhibition rate (%) In vivo protection ([4]; treatment dose 500 μg/mL): 37.2%; Bactericidal activity (%) Colletotrichum orbiculare [5]: 52.0%; Armyworm Mortality (%) (armyworms): 20%; Cotton bollworm Mortality (%) (cotton bollworms): 30%; Mosquito larvae Mortality (%) (mosquito larvae): 40%; Corn borer Mortality (%) (corn borers): 30%
3 | C[C@@H]1N[C@H](C(=O)NN=C2CCCCC2)Cc2c1[nH]c1ccccc21 [Ic-29, (1S, 3S)—N′-cyclohexylidene-1-methyl-2,3,4,9-tetrahydropyridino [3,4-b] indol-3-formylhydrazine] | 8.6% | 43.4% | 12.8% | 33% | 10.9% | 41.9% | 14.3% | 0.0% | 18.2% | 9.1% | 19.0% | 46.2% | 26.1% | 7.7% | 52.8% | 15.3% | 12.1% | 29.4% | 48.6% | 32.0% | Relative inhibition rate (%) In vivo protection ([4]; in vivo): 46.2%; Bactericidal activity (%) Colletotrichum orbiculare [5]: 32.0%; Armyworm Mortality (%) (armyworms): 20%; Cotton bollworm Mortality (%) (cotton bollworms): 25%; Mosquito larvae Mortality (%) (mosquito larvae): 45%; Corn borer Mortality (%) (corn borers): 15%
4 | Cc1nnsc1C(=O)NNC(=O)[C@@H]1Cc2c([nH]c3ccccc23)[C@H](C)N1 [Id-2, 4-methyl-N′-((1S, 3S)-1-methyl-2,3,4,9-tetrahydropyridino [3,4-b]indol-3-triformyl)-1,2,3-thiadiazole-5-formylhydrazine] | 13.5% | 41.2% | 9.8% | 42.9% | 19.1% | 48.8% | 16% | 4.5% | 18.2% | 39.4% | 14.3% | 53.8% | 30.4% | 19.2% | 61.1% | 0.0% | 6.1% | 29.4% | 45.9% | 28.0% | Relative inhibition rate (%) In vivo protection ([4]; treatment dose 500 μg/mL): 51.3%; Bactericidal activity (%) Colletotrichum orbiculare [5]: 24.0%; Armyworm Mortality (%) (armyworms): 40%; Cotton bollworm Mortality (%) (cotton bollworms): 40%; Mosquito larvae Mortality (%) (mosquito larvae): 80%; Corn borer Mortality (%) (corn borers): 40%
5 | C[C@@H]1N[C@H](C(=O)NNC(=O)c2ccncc2)Cc2c1[nH]c1ccccc21 [Id-3, (1S, 3S)—N′-isonicotinoyl-1-methyl-2,3,4,9-tetrahydropyridino [3,4-b] indol-3-formylhydrazine] | 6.4% | 39.2% | 17.9% | 45.3% | 11.6% | 45% | 14.2% | 13.6% | 27.3% | 39.4% | 14.3% | 53.8% | 26.1% | 3.8% | 55.6% | 15.3% | 15.2% | 29.4% | 18.9% | 16.0% | Relative inhibition rate (%) In vivo protection ([4]; treatment dose 500 μg/mL): 42.1%; Bactericidal activity (%) Colletotrichum orbiculare [5]: 36.0%; Armyworm Mortality (%) (armyworms): 25%; Cotton bollworm Mortality (%) (cotton bollworms): 40%; Mosquito larvae Mortality (%) (mosquito larvae): 50%; Corn borer Mortality (%) (corn borers): 25%
6 | C[C@@H]1N[C@H](C(=O)NNC(=O)c2ccccc2)Cc2c1[nH]c1ccccc21 [Id-4, (1S, 3S)—N′-benzoyl-1-methyl-2,3,4,9-tetrahydropyridino [3,4-b] indol-3-formylhydrazine] | 0% | 36.9% | 0% | 37.5% | 0% | 34.2% | 12.1% | 13.6% | 27.3% | 45.5% | 33.3% | 38.5% | 17.4% | 7.7% | 55.6% | 5.6% | 18.2% | 29.4% | 35.1% | 28.0% | Relative inhibition rate (%) In vivo protection ([4]; treatment dose 500 μg/mL): 40%; Bactericidal activity (%) Colletotrichum orbiculare [5]: 32.0%; Armyworm Mortality (%) (armyworms): 10%; Cotton bollworm Mortality (%) (cotton bollworms): 30%; Mosquito larvae Mortality (%) (mosquito larvae): 25%; Corn borer Mortality (%) (corn borers): 15%
